Common to all, as to assay type: biochemical
Test [1] relates to Conus γ-glutamyl carboxylase (Conus radiatus venom duct microsomes). The settings on record: for IC50: read-out: apparent IC50; for Km: read-out: apparent Km.
The target of test [2] is T1, bovine microsomal γ-glutamyl carboxylase (Bos taurus, UniProt Q07175).
T1 construct: For experiments with bovine microsomes, 380 μg of microsomal protein was present in each reaction; from tissue; host or cells: bovine microsomes, gift of Dr. D. W. Stafford
T1 sequence (Q07175 1-758): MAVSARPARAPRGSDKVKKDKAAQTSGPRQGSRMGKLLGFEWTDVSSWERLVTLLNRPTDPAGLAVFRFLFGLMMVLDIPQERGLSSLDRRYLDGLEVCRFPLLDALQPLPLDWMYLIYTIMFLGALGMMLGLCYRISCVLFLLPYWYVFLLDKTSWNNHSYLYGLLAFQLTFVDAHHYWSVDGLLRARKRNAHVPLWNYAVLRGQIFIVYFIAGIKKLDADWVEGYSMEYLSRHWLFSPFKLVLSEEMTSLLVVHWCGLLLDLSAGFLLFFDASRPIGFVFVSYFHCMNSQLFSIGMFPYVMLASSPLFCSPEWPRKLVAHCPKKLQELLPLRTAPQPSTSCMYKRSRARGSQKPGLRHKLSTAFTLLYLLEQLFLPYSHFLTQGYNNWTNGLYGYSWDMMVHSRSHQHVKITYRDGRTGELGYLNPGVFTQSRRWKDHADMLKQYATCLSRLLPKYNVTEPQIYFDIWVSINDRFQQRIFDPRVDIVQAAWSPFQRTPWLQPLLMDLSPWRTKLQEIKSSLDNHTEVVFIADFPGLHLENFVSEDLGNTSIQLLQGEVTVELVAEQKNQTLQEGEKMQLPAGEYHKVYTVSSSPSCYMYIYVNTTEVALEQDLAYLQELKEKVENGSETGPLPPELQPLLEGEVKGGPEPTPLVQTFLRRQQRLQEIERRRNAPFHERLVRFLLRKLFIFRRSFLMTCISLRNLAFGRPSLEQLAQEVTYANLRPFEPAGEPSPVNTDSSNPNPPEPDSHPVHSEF

Test [3] relates to Conus γ-carboxylase.

No end group written: not given here. Some results are limits rather than exact numbers.

Consider ALKAEPVLLQKSAARSTDDN [Pro (-40 to -21)], for which, in test [1], the “effect on the carboxylation of FLEEL or E.ConG” value was “no effect”, the “inhibition of carboxylation of -10.Pro-E.Con-G” value is on record as “did not inhibit” and the IC50 was greater than 1000 µM.

With FLEEL [reference compound], the “pmol 14CO2 Incorporated” value in test [2] is recorded as 249 pmol. In test [1], the “pmol 14CO2 Incorporated” value was found to be 818 pmol and the Km came out at 301 ± 6 µM.

“GKDRLTQMKRILKQRGNKARFLEEL-NH2 [-20.Pro-FLEEL]”: the Michaelis constant (Km) in test [1] stood at 4 µM.

Turning to “GKDRLTQMKRILKQRGNKARGEEELQENQELIREKSN-NH2 [-20.Pro-E.Con-G]”, in test [2], the “pmol 14CO2 Incorporated” value is 3 pmol and the “substrate quality for γ-carboxylation, mammalian enzyme” value is given as “extremely poor”. In addition, the “Glu residues carboxylated (Gla analysis of reaction product)” value in test [3] is “Glu2 was not carboxylated. The rest of the Glu residues were carboxylated, although Glu14 was not efficiently carboxylated”. Besides, in test [1], the “pmol 14CO2 Incorporated” value is recorded as 2741 pmol; the “substrate quality for γ-carboxylation, Conus enzyme” value was “excellent substrate”; the Michaelis constant (Km) was determined as 28 ± 3 µM.

In the case of GTGTLDDGGALTERRSADAT [Pro (-60 to -41)], in test [1], the “effect on the carboxylation of FLEEL or E.ConG” value is “no effect”, the “inhibition of carboxylation of -10.Pro-E.Con-G” value is recorded as “did not inhibit” and the IC50 was greater than 1000 µM.

For the substance “ILKQRGNKARGEEELQENQELIREKSN-NH2 [-10.Pro-E.Con-G]”, the Km in test [1] was found to be 1840 ± 109 µM.

With “KSAARSTDDNGKDRLTQMKRILKQRGNKAR [Pro (-30 to -1)]”, the IC50 in test [1] came to 200 µM.

Source of the values: patent US6197535A, “Methods for purifying and assaying a conus γ-carboxylase” (University of Utah Research Foundation, priority 1999, dated 2001).
